The values that follow come from patent publication US10968210B2, “Diamino-alkylamino-linked arylsulfonamide compounds with selective activity in voltage-gated sodium channels” (Merck Sharp & Dohme Corp., priority 2016, dated 2021).

Bounds are passed on as bounds.

Experiment [1] addresses T1, human Nav 1.7 channels stably expressed in HEK 293 cells (Homo sapiens, UniProt Q15858).
T1 construct: expressed in transfected cells; host or cells: HEK 293
Kind of experiment: IonWorks Quattro automated patch-clamp, inactivated state block of Nav 1.7. The format is cell-based. The following applies: double-pulse protocol, HEK 293 cells held at -100 mV, read-out: potency for the Nav 1.7 sodium ion channel (IC50, IonWorks). As to the method: (§1) IonWorks® Experimental Procedure
(§2) Compounds were tested on human Nav 1.7 and Nav 1.5 channels stably expressed in HEK 293 cells. Sodium current measurements on IonWorks Quattro: An automated patch-clamp assay on the IonWorks Quattro platform (Molecular Devices) was used to measure state-dependent inhibition of human Nav 1.7 and Nav 1.5 channels. Cells were sealed on a planar substrate using the Population Patch Plate (PPC) technology. Electrical access was obtained using both nystatin and amphotericin. A double-pulse protocol was used for the determination of IC50 values for inactivated state block. Nav 1.7 and Nav 1.5 expressing cells were voltage clamped at −100 mV and −110 mV, respectively. A depolarizing prepulse to −10 mV (Nav 1.7) or −30 mV (Nav 1.5) for 1000 ms followed by a 10 ms repolarization to ˜100 mV (Nav1.7) or −110 mV (Nav 1.5) was given to generate fractional channel inactivation of ˜50%, followed by a 10 ms test pulse to −10 mV (Nav 1.7) or −30 mV (Nav 1.5) to measure peak current in control conditions and after compound addition. The following recording solutions were used (mM). External: 150 NaCl, 2 CaCl2, 5 KCl, 1 Mg Cl2, 10 HEPES, 12 Dextrose; internal: 120 CsF, 30 CsCl, 10 EGTA, 5 HEPES, 5 NaF, 2 MgCl2.
(§3) For all electrophysiology experiments, offline analysis was used to determine percent inhibition as a function of drug concentration. IC50 values were determined by fitting to the Hill equation.
(§4) The various compounds in Examples 1 through 4 and Tables 1 through 3 exemplified above were assayed for activity and selectivity using the foregoing IonWorks® technique. The results are reported in the following paragraph in a format expressing the identification of the compound with reference Example and compound (e.g. Ex 1-9 is Example 1, compound 9) followed by the observed potency in nM and the ratio of Nav1.7 potency: Nav1.5 potency as described here. Thus, Ex1-9: 1.7=65/ratio=641 identifies compound Example 1, compound 9 as having 65 nM potency for the Nav 1.7 sodium ion channel (as measured by IonWorks®) and a ratio of 641 Nav 1.7: Nav 1.5 potency, determined by IonWorks® measurement.
In general terms: In patch-clamp work, channel activity is measured electrically.

In experiment [2] the target is T2, human Nav 1.5 channels stably expressed in HEK 293 cells (Homo sapiens, UniProt Q14524).
T2 construct: expressed in transfected cells; host or cells: HEK 293
Kind of experiment: IonWorks Quattro automated patch-clamp, inactivated state block of Nav 1.5 (reported as ratio to Nav 1.7 potency). The format is cell-based. The following applies: selectivity for Nav 1.7 over Nav 1.5, both by IonWorks. As to the method: as §1, §2, §3, §4

T1 sequence (Q15858 whole entry): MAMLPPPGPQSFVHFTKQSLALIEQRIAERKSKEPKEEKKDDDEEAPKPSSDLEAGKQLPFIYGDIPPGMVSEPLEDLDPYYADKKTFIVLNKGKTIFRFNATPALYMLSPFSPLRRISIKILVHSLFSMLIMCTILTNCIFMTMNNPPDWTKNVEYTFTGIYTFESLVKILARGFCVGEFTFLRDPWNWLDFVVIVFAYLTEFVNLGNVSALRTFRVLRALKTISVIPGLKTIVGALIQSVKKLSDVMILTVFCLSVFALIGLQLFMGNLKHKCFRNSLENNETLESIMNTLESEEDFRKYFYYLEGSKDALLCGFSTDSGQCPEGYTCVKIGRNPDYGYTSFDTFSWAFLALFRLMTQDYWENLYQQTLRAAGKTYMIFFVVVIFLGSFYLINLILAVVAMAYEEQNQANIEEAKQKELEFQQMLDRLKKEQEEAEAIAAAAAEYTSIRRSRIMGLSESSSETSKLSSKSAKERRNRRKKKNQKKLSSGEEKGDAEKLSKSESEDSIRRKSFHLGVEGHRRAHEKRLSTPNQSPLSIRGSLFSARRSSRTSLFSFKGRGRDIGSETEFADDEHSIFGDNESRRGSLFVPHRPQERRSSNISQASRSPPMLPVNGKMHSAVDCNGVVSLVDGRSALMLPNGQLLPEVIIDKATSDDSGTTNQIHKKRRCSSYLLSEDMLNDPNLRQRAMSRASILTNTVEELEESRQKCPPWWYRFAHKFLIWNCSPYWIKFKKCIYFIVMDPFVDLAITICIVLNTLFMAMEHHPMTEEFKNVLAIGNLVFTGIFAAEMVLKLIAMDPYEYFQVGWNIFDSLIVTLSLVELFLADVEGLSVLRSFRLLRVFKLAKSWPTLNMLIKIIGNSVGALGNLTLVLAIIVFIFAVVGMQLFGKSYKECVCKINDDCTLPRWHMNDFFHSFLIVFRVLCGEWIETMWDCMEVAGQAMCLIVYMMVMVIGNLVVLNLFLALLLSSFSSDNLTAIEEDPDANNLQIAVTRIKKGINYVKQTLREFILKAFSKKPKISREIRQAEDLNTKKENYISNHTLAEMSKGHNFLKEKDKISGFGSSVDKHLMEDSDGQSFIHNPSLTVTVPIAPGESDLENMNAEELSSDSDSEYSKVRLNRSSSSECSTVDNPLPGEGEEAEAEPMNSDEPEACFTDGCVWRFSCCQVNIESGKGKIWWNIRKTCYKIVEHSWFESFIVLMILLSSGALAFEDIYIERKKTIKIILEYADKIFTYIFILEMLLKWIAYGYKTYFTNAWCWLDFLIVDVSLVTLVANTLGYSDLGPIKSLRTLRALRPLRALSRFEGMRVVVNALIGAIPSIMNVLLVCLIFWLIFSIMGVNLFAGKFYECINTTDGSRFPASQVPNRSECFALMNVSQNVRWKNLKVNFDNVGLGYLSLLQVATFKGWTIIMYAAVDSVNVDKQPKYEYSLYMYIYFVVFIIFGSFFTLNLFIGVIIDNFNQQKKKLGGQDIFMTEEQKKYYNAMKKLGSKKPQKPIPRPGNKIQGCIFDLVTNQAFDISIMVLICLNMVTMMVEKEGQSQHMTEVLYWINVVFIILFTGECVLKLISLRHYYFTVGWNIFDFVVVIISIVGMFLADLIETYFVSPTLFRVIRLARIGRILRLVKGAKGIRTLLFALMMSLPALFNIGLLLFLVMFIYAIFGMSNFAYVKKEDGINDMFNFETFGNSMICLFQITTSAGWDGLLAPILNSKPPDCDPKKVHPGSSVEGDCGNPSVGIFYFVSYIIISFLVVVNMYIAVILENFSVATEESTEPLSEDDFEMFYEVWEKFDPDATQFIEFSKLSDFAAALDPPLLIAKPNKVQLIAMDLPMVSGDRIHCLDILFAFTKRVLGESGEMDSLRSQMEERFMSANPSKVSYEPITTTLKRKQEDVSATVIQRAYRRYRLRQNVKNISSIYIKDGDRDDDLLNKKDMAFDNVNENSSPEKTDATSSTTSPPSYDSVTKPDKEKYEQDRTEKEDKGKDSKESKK
T2 sequence (Q14524 whole entry): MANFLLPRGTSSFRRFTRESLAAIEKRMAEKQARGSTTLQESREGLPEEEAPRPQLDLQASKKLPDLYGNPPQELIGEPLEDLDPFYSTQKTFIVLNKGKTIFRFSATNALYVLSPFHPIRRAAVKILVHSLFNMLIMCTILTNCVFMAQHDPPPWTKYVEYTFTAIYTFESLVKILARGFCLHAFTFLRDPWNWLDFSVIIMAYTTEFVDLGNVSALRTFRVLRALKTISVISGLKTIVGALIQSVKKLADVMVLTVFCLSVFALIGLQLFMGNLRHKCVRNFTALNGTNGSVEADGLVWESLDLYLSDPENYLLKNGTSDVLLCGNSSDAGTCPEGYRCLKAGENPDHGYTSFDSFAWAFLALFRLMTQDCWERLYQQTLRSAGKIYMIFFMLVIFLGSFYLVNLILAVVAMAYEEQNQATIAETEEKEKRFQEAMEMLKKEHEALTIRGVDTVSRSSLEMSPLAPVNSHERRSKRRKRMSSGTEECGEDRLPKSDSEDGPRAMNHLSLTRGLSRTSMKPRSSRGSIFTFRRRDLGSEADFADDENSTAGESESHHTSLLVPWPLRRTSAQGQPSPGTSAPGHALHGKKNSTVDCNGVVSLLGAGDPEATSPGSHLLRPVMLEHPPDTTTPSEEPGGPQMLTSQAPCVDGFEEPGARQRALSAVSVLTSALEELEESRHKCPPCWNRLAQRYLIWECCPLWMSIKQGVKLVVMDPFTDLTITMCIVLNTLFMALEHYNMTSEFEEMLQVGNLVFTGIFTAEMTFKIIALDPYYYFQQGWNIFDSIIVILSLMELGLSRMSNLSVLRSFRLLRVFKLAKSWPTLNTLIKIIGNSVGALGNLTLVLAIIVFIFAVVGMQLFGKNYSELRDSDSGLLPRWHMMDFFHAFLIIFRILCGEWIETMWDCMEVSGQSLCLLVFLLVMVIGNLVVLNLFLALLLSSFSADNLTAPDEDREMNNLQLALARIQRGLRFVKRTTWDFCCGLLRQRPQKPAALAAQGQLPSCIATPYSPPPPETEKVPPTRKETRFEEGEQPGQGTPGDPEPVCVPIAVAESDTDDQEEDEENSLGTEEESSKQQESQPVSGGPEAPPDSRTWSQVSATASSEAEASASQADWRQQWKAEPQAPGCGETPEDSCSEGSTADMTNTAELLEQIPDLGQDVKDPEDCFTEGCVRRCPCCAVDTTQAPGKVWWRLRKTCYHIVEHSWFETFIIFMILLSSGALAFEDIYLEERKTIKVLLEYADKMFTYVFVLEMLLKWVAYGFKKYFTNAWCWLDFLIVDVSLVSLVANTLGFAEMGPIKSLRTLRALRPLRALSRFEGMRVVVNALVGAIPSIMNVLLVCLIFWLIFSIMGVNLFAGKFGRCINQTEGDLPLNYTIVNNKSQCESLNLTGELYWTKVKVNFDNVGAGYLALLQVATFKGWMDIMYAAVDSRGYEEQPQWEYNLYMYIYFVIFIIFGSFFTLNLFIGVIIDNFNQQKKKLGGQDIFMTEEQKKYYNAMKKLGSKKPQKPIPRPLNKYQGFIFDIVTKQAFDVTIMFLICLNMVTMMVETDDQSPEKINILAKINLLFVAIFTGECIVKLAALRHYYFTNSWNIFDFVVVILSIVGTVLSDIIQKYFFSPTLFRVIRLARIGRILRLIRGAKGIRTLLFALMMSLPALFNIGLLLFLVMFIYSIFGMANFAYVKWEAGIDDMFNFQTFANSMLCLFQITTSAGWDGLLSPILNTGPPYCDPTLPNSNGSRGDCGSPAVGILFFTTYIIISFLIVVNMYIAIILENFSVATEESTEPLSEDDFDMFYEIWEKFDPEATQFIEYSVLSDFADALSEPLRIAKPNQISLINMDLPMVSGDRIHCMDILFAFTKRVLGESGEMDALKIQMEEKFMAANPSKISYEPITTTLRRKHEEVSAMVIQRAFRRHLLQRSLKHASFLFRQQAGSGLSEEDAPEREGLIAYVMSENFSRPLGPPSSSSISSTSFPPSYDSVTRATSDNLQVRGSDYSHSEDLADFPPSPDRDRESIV

As for `O=S(=O)(Nc1nccs1)c1cc(Cl)c(NCCCCN2CCC3(CCCN3)CC2)cc1F` [Ex 1-14, 5-chloro-4-{[4-(1,8-diazaspiro[4.5]dec-8-yl)butyl]amino}-2-fluoro-N-1,3-thiazol-2-ylbenzenesulfonamide], the IC50 in experiment [1] is 0.038 µM. Also, the “ratio of Nav 1.7 : Nav 1.5 potency (IonWorks)” value (from here on “ratio”) in experiment [2] is greater than 870.

On to `NC[C@H]1CCCN1CCCCNc1cc(F)c(S(=O)(=O)Nc2nccs2)cc1Cl` [Ex 1-41, 4-({4-[(2R)-2-(aminomethyl)pyrrolidin-1-yl]butyl}amino)-5-chloro-2-fluoro-N-1,3-thiazol-2-ylbenzenesulfonamide], for which the half-inhibitory concentration (IC50) in experiment [1] was 0.048 µM. Besides, the “ratio” value in experiment [2] was greater than 690.

As to `O=S(=O)(Nc1nccs1)c1cc(Cl)c(NCC(CCNC[C@@H]2CCCN2)c2ccccc2)cc1F` (stereo partly drawn) [Ex 10-3, 5-chloro-2-fluoro-4-((2-phenyl-4-(((S)-pyrrolidin-2-ylmethyl)amino)butyl)amino)-N-(thiazol-2-yl)benzenesulfonamide], the half-maximal inhibitory concentration (IC50) in experiment [1] came out at 0.078 µM. In addition, the “ratio” value in experiment [2] is greater than 423.

Take `O=S(=O)(Nc1nccs1)c1ccc(NCCCCNC[C@@H]2CCCN2)c(C(F)(F)F)c1` [Ex 7-04, 4-[(4-{[(2S)-pyrrolidin-2-ylmethyl]amino}butyl)amino]-N-1,3-thiazol-2-yl-3-(trifluoromethyl)benzenesulfonamide]: in experiment [1], the IC50 stood at 0.041 µM. Further, the “ratio” value in experiment [2] is greater than 800.

For the molecule `O=S(=O)(Nc1nccs1)c1cc(Cl)c(NCCCCN2C[C@H]3CNC[C@H]3C2)cc1F` [Ex 1-22, 5-chloro-2-fluoro-4-({4-[(3aR,6aS)-hexahydropyrrolo[3,4-c]pyrrol-2(1H)-yl]butyl}amino)-N-1,3-thiazol-2-ylbenzenesulfonamide], the concentration for half-maximal inhibition (IC50) in experiment [1] was 0.026 µM. Further, the “ratio” value in experiment [2] is listed as greater than 1270.

As for `NCC1CN(CCCCNc2cc(F)c(S(=O)(=O)Nc3nccs3)cc2Cl)C1` [Ex 1-51, 4-({4-[3 (aminomethyl)azetidin-1-yl]butyl}amino)-5-chloro-2-fluoro-N-1,3-thiazol-2-ylbenzenesulfonamide], the IC50 in experiment [1] came out at 0.015 µM. Further, the “ratio” value in experiment [2] is given as greater than 2200.

Turning to `NCC1CCN1CCCCNc1cc(F)c(S(=O)(=O)Nc2nccs2)cc1Cl` (single isomer, unassigned) [Ex 16-53, (S or R)-4-({4-[2-(aminomethyl)-azetidin-1-yl]butyl}amino)-5-chloro-2-fluoro-N-1,3-thiazol-2-ylbenzene-sulfonamide], the IC50 in experiment [1] is 0.042 µM. For the same molecule, in experiment [2], the “ratio” value is greater than 786.

Take `O=S(=O)(Nc1nccs1)c1cc(Cl)c(NCCCCNCCNCc2ccccc2)cc1F` [Ex 1-3, 4-[(4-{[2-(benzylamino)ethyl]amino}butyl)amino]-5-chloro-2-fluoro-N-1,3-thiazol-2-ylbenzenesulfonamide]: the half-maximal inhibitory concentration (IC50) in experiment [1] was found to be 0.007 µM. Besides, the “ratio” value in experiment [2] is recorded as greater than 4700.

Turning to `N#C[C@H]1CN[C@H](CNCCCCNc2cc(F)c(S(=O)(=O)Nc3nccs3)cc2Cl)C1` [Ex 8-7, 5-chloro-4-{[4-({[(2S,4R)-4-cyanopyrrolidin-2-yl]-methyl}amino)butyl]amino}-2-fluoro-N-1,3-thiazol-2-ylbenzenesulfonamide], in experiment [1], the IC50 was found to be 0.087 µM. For the same molecule, the “ratio” value in experiment [2] is reported as greater than 380.

For `NCc1ccccc1CNCCCCNc1cc(F)c(S(=O)(=O)Nc2nccs2)cc1Cl` [Ex 3-4, 4-((4-((2-(aminomethyl)benzyl)amino)butyl)amino)-5-chloro-2-fluoro-N-(thiazol-2-yl)benzenesulfonamide], in experiment [1], the IC50 was determined as 0.021 µM.

Regarding `O=S(=O)(Nc1nccs1)c1cc(Cl)c(NCCCCNC[C@H]2NCC[C@@H]2c2ccccc2)cc1F` [Ex 8-6, 5-chloro-2-fluoro-4-{[4-({[(2S,3R)-3-phenylpyrrolidin-2-yl]-methyl}amino)butyl]amino}-N-1,3-thiazol-2-ylbenzenesulfonamide], the concentration for half-maximal inhibition (IC50) in experiment [1] stood at 0.021 µM.

On to `O=S(=O)(Nc1nccs1)c1cc(Cl)c(NCCCCNC[C@H]2CC(F)(F)CN2)cc1F` [Ex 8-15, 5-chloro-4-{[4-({[(2R)-4,4-difluoropyrrolidin-2-yl]-methyl}amino)butyl]amino}-2-fluoro-N-1,3-thiazol-2-yl-benzenesulfonamide], for which, in experiment [1], the IC50 came to 0.066 µM.

With `NCC(NCCCCNc1cc(F)c(S(=O)(=O)Nc2nccs2)cc1Cl)c1ccccc1` (stereo not drawn) [Ex 1-32, 4-({4-[(2-amino-1-phenylethyl)amino]butyl}amino)-5-chloro-2-fluoro-N-1,3-thiazol-2-ylbenzenesulfonamide], the IC50 in experiment [1] was 0.016 µM.

Consider `O=S(=O)(Nc1nccs1)c1cc(Cl)c(NCCCCNCC2Cc3ccccc3CN2)cc1F` (stereo not drawn) [Ex 1-9, 5-chloro-2-fluoro-4-({4-[(1,2,3,4-tetrahydroisoquinolin-3-ylmethyl)amino]butyl}amino)-N-1,3-thiazol-2-ylbenzenesulfonamide], for which, in experiment [1], the IC50 came out at 0.013 µM.

For `O=S(=O)(Nc1nccs1)c1cc(Cl)c(NCCCCCNCC2CCCCN2)cc1F` (stereo not drawn) [Ex 9-03, 5-chloro-2-fluoro-4-({5-[(piperidin-2-ylmethyl)-amino]pentyl}amino)-N-1,3-thiazol-2-yl-benzenesulfonamide], the IC50 in experiment [1] is 0.019 µM.

For the molecule `O=S(=O)(Nc1nccs1)c1cc(Cl)c(NCCCCN2CCC3(CCNC3)C2)cc1F` (stereo not drawn) [Ex 1-38, 5-chloro-4-{[4-(2,7-diazaspiro[4.4]non-2-yl)butyl]amino}-2-fluoro-N-1,3-thiazol-2-ylbenzenesulfonamide], the half-inhibitory concentration (IC50) in experiment [1] came to 0.044 µM.

`NCC1CCN1CCCCNc1cc(F)c(S(=O)(=O)Nc2nccs2)cc1Cl` (single isomer, unassigned) [Ex 16-52, (R or S)-4-({4-[2-(aminomethyl)-azetidin-1-yl]butyl}amino)-5-chloro-2-fluoro-N-1,3-thiazol-2-ylbenzene-sulfonamide]: in experiment [1], the IC50 came out at 0.031 µM.

Take `O=S(=O)(Nc1nccs1)c1cc(Cl)c(NCCCCNCC2Cc3ccccc3CN2)cc1F` (single isomer, unassigned) [Ex 1-19, (S or R)-5-chloro-2-fluoro-4-({4-[(1,2,3,4-tetrahydroisoquinolin-3-ylmethyl)amino]butyl}amino)-N-1,3-thiazol-2-ylbenzenesulfonamide]: the half-inhibitory concentration (IC50) in experiment [1] turned out to be 0.01 µM.

As for `O=S(=O)(Nc1ncns1)c1cc(Cl)c(NCCCCN2C[C@H]3CCCN[C@H]3C2)cc1F` [Ex 16-31, 5-chloro-2-fluoro-4-({4-[(4aR,7aR)-octahydro-6H-pyrrolo[3,4-b]pyridin-6-yl]-butyl}amino)-N-1,2,4-thiadiazol-5-ylbenzene-sulfonamide], the IC50 in experiment [1] came to 0.012 µM.

`O=S(=O)(Nc1nccs1)c1cc(Cl)c(NCC(F)(F)CCNC[C@@H]2CCCN2)cc1F` [Ex 11-11, 5-chloro-4-[(2,2-difluoro-4-{[(2S)-pyrrolidin-2-ylmethyl]amino}butyl)amino]-2-fluoro-N-1,3-thiazol-2-ylbenzenesulfonamide]: the concentration for half-maximal inhibition (IC50) in experiment [1] was determined as 0.049 µM.

For the molecule `NCC1CN(CCCCNc2cc(F)c(S(=O)(=O)Nc3ncns3)cc2Br)C1` [Ex 16-37, 4-((4-(3-(aminomethyl)azetidin-1-yl)butyl)amino)-5-bromo-2-fluoro-N-(1,2,4-thiadiazol-5-yl)benzenesulfonamide], the half-maximal inhibitory concentration (IC50) in experiment [1] is 0.01 µM.

For orientation: IC50 means the midpoint of a concentration-inhibition curve.
